Publication PMC9688344, “[^225Ac]Ac-SibuDAB for Targeted Alpha Therapy of Prostate Cancer: Preclinical Evaluation and Comparison with [^225Ac]Ac-PSMA-617” (Cancers, 2022)

System: immunocompetent FVB mice
Experiment: Tolerability study in immunocompetent mice
Assay type: in vivo
Text: Five- to six-week-old immunocompetent, female FVB mice were purchased from Charles River Laboratories (Sulzfeld, Germany). After an acclimatization period of at least 7 days, the mice (n = 5 per group) were intravenously injected with 30 kBq [^225Ac]Ac-SibuDAB or 30 kBq [^225Ac]Ac-PSMA-617 and additional mice (n = 7 per group) remained untreated as controls. Mice were monitored by measuring their body mass and potential signs of pain or unease three times a week (Supplementary Material: Section S7). The mice were euthanized on Day 10, Day 28 or on Day 56, respectively, and variable parameters were assessed from blood and tissue samples.
Hematological analysis was performed using blood samples taken by cardiac puncture immediately after euthanasia. Blood and bone marrow smears were prepared and stained using the Pappenheim protocol. The assessment was carried out by a board-certified veterinary anatomic pathologist (AnaPath Services GmbH, Liestal, Switzerland). Blood plasma parameters were determined in plasma after centrifugation of blood samples obtained shortly before euthanasia (Supplementary Material: Section S7).
Tissue sections of formalin-fixed paraffin-embedded (FFPE) spleen, salivary glands and kidneys were prepared and stained with hematoxylin and eosin (H&E) by AnaPath Services GmbH (Liestal, Switzerland). The tissues were analyzed by a board certified veterinary pathologist using a pre-defined scoring system (Supplementary Material: Section S7). […]
The percentage of radioligand bound to mouse or human plasma (A bound) was plotted against the molar ratios of MSA/HSA to radioligand and fitted with a nonlinear regression curve (specific binding with Hill slope, Bmax set to 100%) using GraphPad Prism software (version 8) to obtain the half maximum binding (B 50).
Results: The results are reported in the main article.
Purpose: A tolerability study with normal, immunocompetent FVB mice was con-ducted in order to assess potential side effects to the bone marrow, spleen, salivary glands and kidneys after the application of high activities of the 225Ac-labeled PSMA radioligands.
Methods: Monitoring Body Mass and Signs of Unease: Mice were monitored by meas-uring their body mass (BM) three times a week. The body masses were expressed as the relative body mass, defined as [BMx/BM0], where BMx is the body mass in grams on a given Day x and BM0 is the body mass in grams on Day 0. Endpoint criteria, defined as (i) >15% loss in body mass, (ii) signs of unease and pain or a combination thereof based on a scoring system, were not reached in this stu dy.
Hematology: Blood cell counts were determined in blood samples taken by cardiac puncture immediately after euthanasia and collected in EDTA tubes (Microvette® 100 K3 EDTA, Sarstedt, Germany). Leukocyte, lymphocyte, erythrocyte and thrombocyte counts as well as hemoglobin and hematocrit values were determined using a hematology ana-lyzer (VetScan HM5, Abaxis, United States). Blood smears were prepared on glass slides with cardiac blood. The bone marrow was collected from the femur, diluted in FCS/H2O (2:1 v/v) and smeared onto microscopy slides using a paintbrush. The slides were stained with a May Grünwald solution and subsequently with diluted Giemsa solution using the Pappenheim method and covered with coverslips using mounting medium (Pertex).
The assessment of potential morphological ch anges of the blood cells and counting of the subgroups of leukocytes was performed by a board-certified veterinary pathologist (Ana-Path Services GmbH, Liestal, Switzerland).
Histopathological Analysis: Spleen, salivary glands and kidneys were formalin-fixed and paraffin-embedded. Tissue sections were stained with hematoxylin & eosin (H&E) […]
Blood Plasma Parameters: Blood plasma parameters were determined in plasma ob-tained from centrifuged retrobulbar blood samples collected in lithium-heparin tubes (Mi-crovette® 200 LH, SARSTEDT). The concentrations of blood urea nitrogen (BUN), alkaline […]

With CC(C)Cc1ccc(C(C)C(=O)NC(CCN)C(=O)NCCCCC(NC(=O)CN2CCN(CC(=O)[O-])CCN(CC(=O)[O-])CCN(CC(=O)[O-])CC2)C(=O)NCC2CCC(C(=O)NC(Cc3ccc4ccccc4c3)C(=O)NCCCCC(NC(=O)NC(CCC(=O)O)C(=O)O)C(=O)O)CC2)cc1.[225Ac+3] (stereo not shown) [[^225Ac]Ac-SibuDAB] the “Tolerability (body mass)” value (30 kBq per mouse, until Day 56) was “well tolerated”, the “Kidneys: Hyperplasia/hypertrophy, tubular, incidence” value (Day 10, 30 kBq) was 0 and the “Kidneys: Hyperplasia/hypertrophy, tubular, score average” value (Day 10, 30 kBq) was 0.0. For the same compound, the “Kidneys: Hypertrophy/hyperplasia, tubular with ectasia, incidence” value (Day 10, 30 kBq) was 0, the “Kidneys: Hypertrophy/hyperplasia, tubular with ectasia, score average” value (Day 10, 30 kBq) was 0.0 and the “Kidneys: Inflammatory cells, interstitium, incidence” value (Day 10, 30 kBq) was 0. The “Kidneys: Inflammatory cells, interstitium, score average” value (Day 10, 30 kBq) was 0.0, the “Kidneys: Inflammatory cells, pelvis, incidence” value (Day 10, 30 kBq) was 0 and the “Kidneys: Inflammatory cells, pelvis, score average” value (Day 10, 30 kBq) was 0.0. For the same compound, the “Kidneys: Mineralization, papilla, incidence” value (Day 10, 30 kBq) was 0, the “Kidneys: Mineralization, papilla, score average” value (Day 10, 30 kBq) was 0.0 and the “Kidneys: Tubular basophilia, incidence” value (Day 10, 30 kBq) was 0. For the same compound, the “Kidneys: Tubular basophilia, score average” value (Day 10, 30 kBq) was 0.0, the “Salivary glands: Ductal hyperplasia with inflammatory cells, incidence” value (Day 10, 30 kBq) was 0 and the “Salivary glands: Ductal hyperplasia with inflammatory cells, score average” value (Day 10, 30 kBq) was 0.0. For the same compound, the “Salivary glands: Hypertrophy acinar, sublingual, incidence” value (Day 10, 30 kBq) was 0, the “Salivary glands: Hypertrophy acinar, sublingual, score average” value (Day 10, 30 kBq) was 0.0 and the “Salivary glands: Mononuclear cell foci, incidence” value (Day 10, 30 kBq) was 1. The “Salivary glands: Mononuclear cell foci, score average” value (Day 10, 30 kBq) was 1.0, the “Salivary glands: Necrosis, multifocal, serous acinar cells, incidence” value (Day 10, 30 kBq) was “two out of five” and the “Salivary glands: Necrosis, multifocal, serous acinar cells, score average” value (Day 10, 30 kBq) was 1.0. The “Salivary glands: Vacuolation, incidence” value (Day 10, 30 kBq) was 1, the “Salivary glands: Vacuolation, score average” value (Day 10, 30 kBq) was 1.0 and the “Spleen: Extramedullary hematopoiesis, incidence” value (Day 10, 30 kBq) was 5. For the same compound, the “Spleen: Extramedullary hematopoiesis, score average” value (Day 10, 30 kBq) was 1.2, the “Spleen: Hyperplasia, lymphoid, incidence” value (Day 10, 30 kBq) was 1 and the “Spleen: Hyperplasia, lymphoid, score average” value (Day 10, 30 kBq) was 1.0. The “Spleen: Pigment, incidence” value (Day 10, 30 kBq) was 5, the “Spleen: Pigment, score average” value (Day 10, 30 kBq) was 1.0 and the “mice with relative increase of neutrophilic blasts (metamyelocytes) in peripheral blood” value (Day 10, 30 kBq) was “one out of five”. For the same compound, the “myelopoiesis in bone marrow smears (group value)” value (Day 10, 30 kBq) was 66%, the “Salivary glands: Necrosis, multifocal, serous acinar cells, incidence” value (Day 10, 30 kBq, listed as [225Ac]Ac-SibuDAB) was 2 and the “Bone marrow % E” value (Day 10, mouse M1) was 30%. The “Bone marrow % M” value (Day 10, mouse M1) was 70%, the “Bone marrow smear, Notes” value (Day 10, mouse M1) was “More blasts, neutrophilic row” and the “Bone marrow % E” value (Day 10, mouse M2) was 50%. The “Bone marrow % M” value (Day 10, mouse M2) was 50%, the “Bone marrow % E” value (Day 10, mouse M3) was 40% and the “Bone marrow % M” value (Day 10, mouse M3) was 60%. The “Blood smear, Notes” value (Day 10, mouse M4) was “More neutrophilic blasts (Metamyelocyte)”, the “Bone marrow % E” value (Day 10, mouse M4) was 30% and the “Bone marrow % M” value (Day 10, mouse M4) was 70%. The “Bone marrow smear, Notes” value (Day 10, mouse M4) was “More blasts, neutrophilic row”, the “Bone marrow % E” value (Day 10, mouse M5) was 20% and the “Bone marrow % M” value (Day 10, mouse M5) was 80%. For the same compound, the “Bone marrow smear, Notes” value (Day 10, mouse M5) was “More blasts, neutrophilic row”, the “Albumin concentration in blood plasma” value (Day 28, 30 kBq) was 26 ± 1 g/L and the Blood urea nitrogen (Day 28, 30 kBq) was 9.1 ± 1.1 mmol/L. The Erythrocyte counts (Day 28, 30 kBq) was 8.7 ± 0.3 × 10^12/L, the Hematocrit (Day 28, 30 kBq) was 43 ± 1% and the Hemoglobin (Day 28, 30 kBq) was 11.2 ± 0.5 g/dL. The “Kidneys: Hyperplasia/hypertrophy, tubular, incidence” value (Day 28, 30 kBq) was 0, the “Kidneys: Hyperplasia/hypertrophy, tubular, score average” value (Day 28, 30 kBq) was 0.0 and the “Kidneys: Hypertrophy/hyperplasia, tubular with ectasia, incidence” value (Day 28, 30 kBq) was 0. The “Kidneys: Hypertrophy/hyperplasia, tubular with ectasia, score average” value (Day 28, 30 kBq) was 0.0, the “Kidneys: Inflammatory cells, interstitium, incidence” value (Day 28, 30 kBq) was 1 and the “Kidneys: Inflammatory cells, interstitium, score average” value (Day 28, 30 kBq) was 1.0. The “Kidneys: Inflammatory cells, pelvis, incidence” value (Day 28, 30 kBq) was 2, the “Kidneys: Inflammatory cells, pelvis, score average” value (Day 28, 30 kBq) was 1.0 and the “Kidneys: Mineralization, papilla, incidence” value (Day 28, 30 kBq) was 0. The “Kidneys: Mineralization, papilla, score average” value (Day 28, 30 kBq) was 0.0, the “Kidneys: Tubular basophilia, incidence” value (Day 28, 30 kBq) was 0 and the “Kidneys: Tubular basophilia, score average” value (Day 28, 30 kBq) was 0.0. The “Salivary glands: Ductal hyperplasia with inflammatory cells, incidence” value (Day 28, 30 kBq) was 0.
